Reference: patent publication US7101878B1 (Agouron Pharmaceuticals, Inc., priority 1998, dated 2006)
Like-named read-outs stand apart in the source and are kept apart here.

Biological target: T1, human GnRH receptor (Homo sapiens, UniProt P30968)
T1 construct: expressed in transfected cells; host or cells: HEK 293 (hGnRH-R/293, from Dr. Stuart Sealfon)
T1 sequence (P30968 1-328): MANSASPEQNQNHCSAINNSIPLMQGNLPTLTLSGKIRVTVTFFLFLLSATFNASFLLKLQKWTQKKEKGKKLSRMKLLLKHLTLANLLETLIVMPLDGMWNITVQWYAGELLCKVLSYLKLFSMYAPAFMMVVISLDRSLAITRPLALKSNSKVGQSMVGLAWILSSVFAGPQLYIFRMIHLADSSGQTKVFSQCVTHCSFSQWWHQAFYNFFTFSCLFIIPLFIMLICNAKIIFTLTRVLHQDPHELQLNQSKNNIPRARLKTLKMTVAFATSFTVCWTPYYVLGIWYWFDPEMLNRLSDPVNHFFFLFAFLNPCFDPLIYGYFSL
Assay: Radioligand binding, 125I-GnRH-A displacement, membranes of HEK 293 cells with human GnRH receptor
Conditions: for remaining activity at 10 µM: read-out: S%R 10 uM hGnRHR; for IC50: read-out: hGnRH IC50; for remaining activity at 1 µM: 1 uM compound, read-out: S%R 1 uM hGnRHR
In short: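 Bound tracer was separated by filtration through polyethyleneimine-soaked GF/C filters and counted by liquid scintillation. IC50 from curve fitting; other species were tested under the same conditions.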

[1] = 1 h, substrate remaining, 10 uM compound, closer to zero = closer to 100% inhibition
[2] = 1 uM, read-out: % Inhib. @ 1 uM hGnRH
[3] = 1 h, repeat of % Inhib. at 1 uM, read-out: Repeats @ 1 uM hGnRH
[4] = 1 h, substrate remaining, closer to zero = closer to 100% inhibition

Row | Compound | inhibition at 1 µM [2] [%] | inhibition at 1 µM [3] [%] | further results
1 | Cc1cc2c(cc1Cc1ccc(C(=O)Nc3ccc(O)c([N+](=O)[O-])c3)o1)C(C)(C)CCC2(C)C [Compound 371] | – | – | remaining activity at 10 µM [1]: 55%
2 | Cc1cc2c(cc1Cc1ccc(C(=O)NC(CO)C(O)c3ccccc3)o1)C(C)(C)CCC2(C)C (stereo not shown) | -1 | 12 | –
3 | Cc1cc2c(cc1Cc1ccc(C(=O)NCCc3c[nH]c4ccccc34)o1)C(C)(C)CCC2(C)C [drawing 1012] | 78 | 81 | –
4 | Cc1cc2c(cc1Cc1ccc(C(=O)Nc3c(O)cccc3O)o1)C(C)(C)CCC2(C)C [Compound 189] | – | – | IC50: 940 nM
5 | Cc1cc2c(cc1Cc1ccc(C(=O)NC3CCN(c4nccc(NCC5CCCO5)n4)C3)o1)C(C)(C)CCC2(C)C (stereo not shown) [drawing 1036] | -12 | 0 | –
6 | Cc1cc2c(cc1Cc1ccc(C(=O)NCCc3c[nH]cn3)o1)C(C)(C)CCC2(C)C [drawing 1051] | – | – | % Inhib. @ 1 uM hGnRH (1 uM): 32%; Repeats @ 1 uM hGnRH (repeat of % Inhib. at 1 uM): 36
7 | Cc1cc2c(cc1Cc1ccc(C(=O)N3CCN(c4ccc(C(F)(F)F)cc4[N+](=O)[O-])CC3)o1)C(C)(C)CCC2(C)C | -20 | -21 | –
8 | CCOC(=O)CN(Cc1ccccn1)C(=O)c1ccc(Cc2cc3c(cc2C)C(C)(C)CCC3(C)C)o1 [Compound 216] | – | – | IC50: 4400 nM
9 | Cc1cc2c(cc1Cc1ccc(C(=O)N(Cc3ccccn3)CC(C)C)o1)C(C)(C)CCC2(C)C [Compound 215] | – | – | IC50: 7800 nM
10 | COc1ccc(CNC(=O)c2ccc(Cc3cc4c(cc3C)C(C)(C)CCC4(C)C)o2)cc1 [Compound 414] | – | – | remaining activity at 1 µM [4]: 10%
11 | CCOC(=O)Cc1ccc(NC(=O)c2ccc(Cc3cc4c(cc3C)C(C)(C)CCC4(C)C)o2)cc1 [Compound 32] | – | – | IC50: 3800 nM
12 | Cc1cc2c(cc1Cc1ccc(C(=O)NCc3cccc(C)c3C)o1)C(C)(C)CCC2(C)C [Compound 441] | – | – | remaining activity at 1 µM [4]: 17%
13 | Cc1cc2c(cc1Cc1ccc(C(=O)Nc3ccc4c(=O)[nH][nH]c(=O)c4c3)o1)C(C)(C)CCC2(C)C [Compound 385] | – | – | S%R 10 uM hGnRHR (substrate remaining, 10 uM compound, closer to zero = closer to 100% inhibition): 41%
14 | CC1=CC(NC(=O)c2ccc(Cc3cc4c(cc3C)C(C)(C)CCC4(C)C)o2)=NC1c1ccccc1 (stereo not shown) [Compound 329] | – | – | remaining activity at 10 µM [1]: 31%
15 | COc1ccccc1CC(C)N(C)C(=O)c1ccc(Cc2cc3c(cc2C)C(C)(C)CCC3(C)C)o1 (stereo not shown) | -7 | 15 | –
16 | Cc1cc2c(cc1Cc1ccc(C(=O)NCCc3ccc(Cl)cc3Cl)o1)C(C)(C)CCC2(C)C [drawing 998] | 16 | 23 | –
17 | COc1ccc(OC)c(CCNC(=O)c2ccc(Cc3cc4c(cc3C)C(C)(C)CCC4(C)C)o2)c1 [drawing 996] | 23 | 36 | –
18 | Cc1cc2c(cc1Cc1ccc(C(=O)Nc3ncc([N+](=O)[O-])cn3)o1)C(C)(C)CCC2(C)C [Compound 205] | – | – | IC50: > 10000 nM
19 | Cc1cc2c(cc1Cc1ccc(C(=O)NCCc3cccc(F)c3)o1)C(C)(C)CCC2(C)C [Compound 437] | – | – | remaining activity at 1 µM [4]: 40%
20 | Cc1cc2c(cc1Cc1ccc(C(=O)NC(C)c3ccc(O)cc3)o1)C(C)(C)CCC2(C)C (stereo not shown) | -10 | -9 | –

Row | Compound | inhibition at 1 µM [2] [%] | inhibition at 1 µM [3] [%] | further results
21 | Cc1cc2c(cc1Cc1ccc(C(=O)NC3CCCCC3Cc3ccnc(NCC4CCCO4)n3)o1)C(C)(C)CCC2(C)C (stereo not shown) | 11 | 13 | –
22 | Cc1cc2c(cc1Cc1ccc(C(=O)NCC3CCN(C(=N)N)CC3)o1)C(C)(C)CCC2(C)C [drawing 1063] | 26 | 87 | –
23 | Cc1ccc(CCNC(=O)c2ccc(Cc3cc4c(cc3C)C(C)(C)CCC4(C)C)o2)cc1 [drawing 1193] | 48 | 52 | –
24 | Cc1cc2c(cc1Cc1ccc(C(=O)N3CCN(c4ccncc4)CC3)o1)C(C)(C)CCC2(C)C | -4 | 11 | –
25 | Cc1cc2c(cc1Cc1ccc(C(=O)NC3CCC(Nc4nccc(NCC5CCCO5)n4)CC3)o1)C(C)(C)CCC2(C)C (stereo not shown) [Compound 152] | – | – | IC50: 700 nM
26 | CCN(Cc1cc([N+](=O)[O-])ccc1O)C(=O)c1ccc(Cc2cc3c(cc2C)C(C)(C)CCC3(C)C)o1 | -11 | -5 | –
27 | Cc1cc2c(cc1Cc1ccc(C(=O)NC3Cc4ccccc4C3)o1)C(C)(C)CCC2(C)C | 11 | 15 | –
28 | Cc1cc2c(cc1Cc1ccc(C(=O)NCCc3ccc(O)c(O)c3)o1)C(C)(C)CCC2(C)C | -10 | -3 | –
29 | Cc1cc2c(cc1Cc1ccc(C(=O)NCCc3cccc(F)c3)o1)C(C)(C)CCC2(C)C [drawing 1181] | 59 | 62 | –
30 | Cc1cc2c(cc1Cc1ccc(C(=O)Nn3c(O)nnc3-c3ccncc3)o1)C(C)(C)CCC2(C)C | – | – | inhibition at 10 µM (repeat, read-out: Repeats @ 10 uM hGnRH (% inhib.)): -28%; inhibition at 10 µM (read-out: % inhib. @ 10 uM hGnRH): -17%
31 | COc1cc(OC)c(NC(=O)c2ccc(Cc3c(OC)ccc4c3CCCC4=O)o2)c(OC)c1 [Compound 223] | – | – | IC50: 1660 nM
32 | Cc1cc2c(cc1Cc1ccc(C(=O)N3CCN(c4ncccn4)CC3)o1)C(C)(C)CCC2(C)C [Compound 30.5] | – | – | IC50: 5030 nM
33 | Cc1cnc(CNC(=O)c2ccc(Cc3ccc4c(c3)C(C)(C)CCC4(C)C)o2)cn1 [Compound 60] | – | – | IC50: 4200 nM
34 | CCCOCCNC(=O)c1ccc(Cc2cc3c(cc2C)C(C)(C)CCC3(C)C)o1 [Compound 132] | – | – | IC50: 640 nM
35 | Cc1cc2c(cc1Cc1ccc(C(=O)N[C@@H](CO)Cc3c[nH]cn3)o1)C(C)(C)CCC2(C)C | -17 | -27 | –
36 | COc1cc(OC)c(NC(=O)c2ccc(Cc3cc(C(C)=O)c(C)cc3C)o2)c(OC)c1 [Compound 230] | – | – | IC50: 580 nM
37 | Cc1cc2c(cc1Cc1ccc(C(=O)NCc3ccc(Cl)c(C(F)(F)F)c3)o1)C(C)(C)CCC2(C)C | 15 | 19 | –
38 | Cc1cc2c(cc1Cc1ccc(C(=O)Nc3ncccc3O)o1)C(C)(C)CCC2(C)C [Compound 369] | – | – | remaining activity at 10 µM [1]: 11%
39 | COc1ccccc1CCNC(=O)c1ccc(Cc2cc3c(cc2C)C(C)(C)CCC3(C)C)o1 [Compound 419] | – | – | remaining activity at 1 µM [4]: 36%
40 | Cc1cc2c(cc1Cc1ccc(C(=O)N3CCN(c4ccccc4)CC3)o1)C(C)(C)CCC2(C)C [drawing 1121] | – | – | % Inhib. @ 1 uM hGnRH (1 uM): −6%; Repeats @ 1 uM hGnRH (repeat of % Inhib. at 1 uM): 6

Row | Compound | inhibition at 1 µM [2] [%] | inhibition at 1 µM [3] [%] | further results
41 | Cc1cc2c(cc1Cc1ccc(C(=O)NC(C#N)c3ccccc3)o1)C(C)(C)CCC2(C)C (stereo not shown) [Compound 452] | – | – | remaining activity at 1 µM [4]: 55%
42 | Cc1cc2c(cc1Cc1ccc(C(=O)NCCC#N)o1)C(C)(C)CCC2(C)C [drawing 1179] | 42 | 44 | –
43 | Cc1cc2c(cc1Cc1ccc(C(=O)Nc3cccc(O)c3)o1)C(C)(C)CCC2(C)C [Compound 345] | – | – | remaining activity at 10 µM [1]: 40%
44 | Cc1cc2c(cc1Cc1ccc(C(=O)NCc3cc4c5ccccc5n(Cc5cc(Cl)ccc5Cl)c4cn3)o1)C(C)(C)CCC2(C)C | -34 | -38 | –
45 | Cc1cc2c(cc1Cc1ccc(C(=O)NC3CC3)o1)C(C)(C)CCC2(C)C [drawing 1149] | 49 | 58 | –
46 | Cc1cc2c(cc1Cc1ccc(C(=O)NCc3cccc(CNc4ncnc5[nH]ccc45)c3)o1)C(C)(C)CCC2(C)C [Compound 180] | – | – | IC50: 350 nM
47 | Cc1cc2c(cc1Cc1ccc(C(=O)NC(Cc3ccccc3)c3ccccc3)o1)C(C)(C)CCC2(C)C (stereo not shown) | 13 | 19 | –
48 | Cc1cc2c(cc1Cc1ccc(C(=O)NCc3cccc([N+](=O)[O-])c3)o1)C(C)(C)CCC2(C)C [Compound 451] | – | – | remaining activity at 1 µM [4]: 24%
49 | Cc1cc2c(cc1Cc1ccc(C(=O)Nc3ccc4[nH]ncc4c3)o1)C(C)(C)CCC2(C)C [Compound 383] | – | – | remaining activity at 10 µM [1]: 7%
50 | Cc1cc2c(cc1Cc1ccc(C(=O)Nc3ccc4[nH]c(O)nc4c3)o1)C(C)(C)CCC2(C)C [Compound 355] | – | – | remaining activity at 10 µM [1]: 20%
51 | CCc1ccc(C)nc1NC(=O)c1ccc(Cc2cc3c(cc2C)C(C)(C)CCC3(C)C)o1 [Compound 375] | – | – | remaining activity at 10 µM [1]: 16%
52 | Cc1cc2c(cc1Cc1ccc(C(=O)NC(CO)CSCc3ccccc3)o1)C(C)(C)CCC2(C)C (stereo not shown) | 16 | 7 | –
53 | Cc1cc2c(cc1Cc1ccc(C(=O)NCCN(C)C)o1)C(C)(C)CCC2(C)C | -4 | -7 | –
54 | Cc1cc2c(cc1Cc1ccc(C(=O)NCC3CCNCC3)o1)C(C)(C)CCC2(C)C [drawing 981] | 20 | 24 | –
55 | Cc1cc2c(cc1Cc1ccc(C(=O)NC(C)c3ccc(Cl)cc3)o1)C(C)(C)CCC2(C)C (stereo not shown) | 20 | 28 | –
56 | Cc1cc2c(cc1Cc1ccc(C(=O)NC(c3ccccc3)c3ccccc3)o1)C(C)(C)CCC2(C)C [drawing 1077] | – | – | % Inhib. @ 1 uM hGnRH (1 uM): −7%; Repeats @ 1 uM hGnRH (repeat of % Inhib. at 1 uM): −7
57 | Cc1cc2c(cc1Cc1ccc(C(=O)NCc3cccc(Cl)c3)o1)C(C)(C)CCC2(C)C [drawing 1136] | 78 | 84 | –
58 | Cc1cc2c(cc1Cc1ccc(C(=O)NCCc3cccc(Oc4ccccc4)c3)o1)C(C)(C)CCC2(C)C [drawing 1039] | -2 | 4 | –
59 | Cc1cc2c(cc1Cc1ccc(C(=O)Nc3nc[nH]n3)o1)C(C)(C)CCC2(C)C [Compound 324] | – | – | remaining activity at 10 µM [1]: 27%
